Test results: patent publication US7893108B2, “Antiviral methods and compositions” (priority 2004, dated 2011)
Values joined by “and” are separate entries in the source; they are usually repeats but may differ in a detail not shown here. Identical values can stand only once. Like-named read-outs stand apart in the source and are kept apart here.

Tests used:
[1] = target: T1, UL54 plus GST-UL44ΔC290 (Human cytomegalovirus, UniProt P16790); assay: long-chain DNA synthesis by UL54 in the presence of UL44; assay type: biochemical, HCMV; conditions: for inhibition of long-chain DNA synthesis by UL54 and UL44: dose-response; for inhibition of long-chain DNA synthesis by UL54 and UL44 at one concentration: 40 μM
T1 construct: GST-UL44ΔC290 fusion protein, which contains the N-terminal 290 residues of HCMV UL44; made in house; host or cells: UL54: in vitro transcription/translation; GST-UL44ΔC290: E. coli BL21 (DE3)pLysS
Procedure: To analyze the ability of the compounds to interfere with functional UL54-UL44 interactions, we tested their ability to inhibit long-chain DNA synthesis by UL54 in the presence of UL44 employing a poly(dA)-oligo(dT)12-18 template-primer.
DNA polymerase assays. The effects of compounds were tested in an assay that measures long-chain DNA synthesis as described in Loregian et al. (Loregian et al., 2004a), with 5 μl of in vitro-transcribed and -translated UL54 plus 800 fmol of GST-UL44ΔC290 in the absence or in the presence of various amounts of each compound.
The effect of the compounds was also tested in an assay that measures long chain (Lc) DNA synthesis as described in Loregian et al., J. Virol. […]

[2] = test system: HCMV AD169; assay: virus yield reduction assay; assay type: cell-based, human cytomegalovirus
Procedure: Next, we tested the effects of selected compounds and of GCV as a control in viral yield assays, which measure the titer of virus progeny produced following infection at relatively high multiplicity. In these assays, the viral titer was measured at two different times points post-infection (p.i.): at 96 hrs, when the release of virus progeny is increasing, and at 120 hrs, when the titer of virus progeny after a single cycle of replication reaches peak levels (Stinski, 1983).
(§1) For yield reduction assays, HFF cells were plated at 2×10^4 cells per well in 96-well cluster dishes, incubated overnight, and infected with HCMV AD169 at a multiplicity of infection (MOI) of 1. After virus adsorption for 2 hr at 37° C., cells were washed and incubated with 200 μl of fresh media containing test compounds at increasing drug concentration. Plates were incubated for 3 or 5 days at 37° C. and subjected to one cycle of freezing and thawing, and titers were determined by transferring 100-μl aliquots from each of the wells to a fresh 96-well monolayer culture of HFF cells followed by 1:5 serial dilution across the plate. Cultures were incubated for 7 days, cells were stained, and the numbers of plaques were determined as described above.
as §1, with “The effect of the compounds was assessed in an assay of virus yield. In this assay, cells are infected at a relatively high multiplicity of infection (about one per cell) and then drug is added. The virus produced at the different times post infection is measured. 120 hrs. is about the peak titer. This assay was conducted as follows.” for “For yield reduction assays,”, “20,000” for “2×10^4”, “an MOI” for “a multiplicity of infection (MOI)”, “0.1, 0.3, 1, 3, 10, 30 μM” for “increasing”

[3] = target: T2, full-length UL54 / UL44 interaction (Human cytomegalovirus, UniProt P16790); assay: UL54-UL44 interaction ELISA; assay type: binding, HCMV; conditions: concentrations up to 200 μM
T2 construct: made in house; host or cells: baculovirus expression; proteins provided by H. S. Marsden (Institute of Virology, Glasgow)
Procedure: In this assay, binding between purified baculovirus-expressed UL54 and UL44, which was tagged with an EEF epitope, was detected using an antibody that recognizes the epitope tag (Loregian et al., 2003).
UL54-UL44 interaction ELISA. This assay was conducted as described in (Loregian et al., 2003), testing various concentrations of each compound. After final washes, the chromogenic substrate 2,2′-azino-bis(3-ethylbenzothiazoline-6-sulphonic acid (ABTS, Pierce) in citrate phosphate buffer (pH 4.0) containing 0.01% hydrogen peroxide was added and absorbance was read at 405 nm on a Victor plate reader (Wallac).
Another assay that was used to test the effect of the compounds on the interaction of UL44 and UL54 is an ELISA interaction assay, which measures the interaction of the two full length proteins with each other. This assay was conducted as described in Loregian et al., J. Virol. 2003, 77:8336-8344, testing different concentrations (0, 3.12, 6.25, 12.5, 25, 50, 100, 200 μM) of each compound.

[4] = test system: HCMV strain AD169; assay: plaque reduction assay; assay type: cell-based, human cytomegalovirus; conditions: HFF cells; 0-30 μM
Procedure: Antiviral assays. Plaque reduction assays were performed essentially as follows: HFF (human foreskin fibroblast) cells were seeded at 2×10^5 cells per well in 24-well cluster dishes. The next day, cells were infected with HCMV (strain AD169) at 80 PFU per well in DMEM plus 5% fetal bovine serum (FBS) at 37° C. Two hours post-infection, the inocula were removed, cells were washed, and media containing various drug dilutions, 5% FBS, and 0.6% methylcellulose were added. All drug dilutions were tested at least in duplicate. After incubation at 37° C. for 10-11 days, cell monolayers were stained with crystal violet and plaques were counted under light microscopy.
The effect of the compounds was assessed in a plaque reduction assay that measures the number of plaques formed in the presence of varying concentrations of a drug, as follows. HFF were seeded at 2×10^5 cells per well in 24-well cluster dishes. The next day, they were infected with HCMV AD169 at 80 PFU per well in DMEM plus 5% FBS at 37° C. Two hr post-infection, the inocula were then removed, cells were washed, and media containing selected drug dilutions (0, 0.1, 0.3, 1, 3, 10, 30 μM), and 5% FBS and 0.6% methylcellulose were added. All drug dilutions were tested at least in duplicate. After incubation at 37° C. for 10-11 days, cell monolayers were stained with crystal violet and plaques were enumerated under light microscopy.

[5] = test system: HFF cells; assay: XTT cytotoxicity assay; assay type: cell-based, human
Procedure: Cytotoxicity assays. HFF cells were seeded at 2×10^4, 4×10^3, or 10^3 cells per well into 96-well plates and, after a 3-hr incubation to allow cell attachment, were treated for 24, 72, or 120 hr, respectively, with various concentrations of each compound in duplicate. Cell viability was then determined with an XTT assay (Roche Molecular Biochemicals) according to the manufacturer's protocol by using a Victor plate reader (Wallac).
The cytotoxicity of the compounds was measured in an XTT assay. XTT is a compound that is converted to a product that can be measured […], but only by viable cells. This assay is as follows. HFF (human foreskin fibroblasts) cells were seeded at different concentrations into 96-well plates and treated with various concentrations (from 0 to 200 μM) of each compound in duplicate for 24, 72 or 120 hr. Cell viability was then determined with an XTT assay (Roche Molecular Biochemicals) according to the manufacturer's protocol by using a Victor plate reader (Wallac).

[6] = target: T3, GST-UL44ΔC290 / UL54-derived peptide interaction (Human cytomegalovirus, UniProt P16790); assay: biochemical; assay type: binding, HCMV; conditions: 2.5 μM GST-UL44ΔC290 and 3 nM labeled peptide
T3 construct: GST-UL44ΔC290 fusion protein, which contains the N-terminal 290 residues of HCMV UL44; made in house; host or cells: E. coli BL21 (DE3)pLysS
From the text: To identify small molecule inhibitors of the UL54-UL44 interaction, we developed an assay based on fluorescence polarization (FP) (Dandliker et al., 1981). In this assay, a peptide corresponding to the C-terminal 22 residues of UL54 (here named peptide 1, as in Loregian et al. (Loregian et al., 2003)), which was labeled with the fluorophore Oregon Green, is mixed with UL44ΔC290, a truncated protein which retains all known biochemical activities of full-length UL44 (Loregian et al., 2004b), fused to glutathione S-transferase (GST-UL44ΔC290).
We next investigated whether this assay could detect a known inhibitor of the UL54-UL44 interaction. To this end, a binding reaction of 2.5 μM GST-UL44ΔC290 and 3 nM labeled peptide was titrated with increasing concentrations of unlabeled peptide 1 (FIG. 4B).
FP assays. Unless otherwise indicated, […] of Oregon Green-labeled peptide 1 was added to 2.5 μM GST-UL44ΔC290 in 50 mM Tris-HCl (pH 7.5), 2 mM dithiothreitol, 0.5 mM EDTA, 150 mM NaCl, 4% glycerol and 100 μg/ml bovine serum albumin and kept on ice until the mix was distributed into black 384-well plates (Nunc) in a total volume of 40 μl per well. For high throughput screening, small molecules (5 mg/ml in DMSO) of the Maybridge, Bionet, Peakdale, ChemDiv, and Chembridge Microformat libraries were obtained from the ICCB, and 100 nl of each compound were transferred to individual wells using 384-pin arrays. All compounds were tested in duplicate. As controls, reaction mixtures containing either labeled peptide 1 only, or GST-UL44ΔC290 plus labeled peptide 1 (no compound), or GST-UL44ΔC290 plus labeled peptide 1 in the presence of 3 μM or 20 μM of unlabeled peptide 1, were included on each screening plate. After 15-min incubation at room temperature, FP values were determined by using an Analyst plate reader (LJL Biosystems) at the ICCB.
A fluorescence polarization (FP) assay was used to identify compounds that inhibit HCMV polymerase subunit interactions. Compounds from the Harvard Institute of Chemistry and Cell Biology (ICCB, Harvard Medical School) were screened as follows. 3 nM of a synthetic peptide corresponding to the C-terminal 22 residues of HMCV UL54 (termed peptide 1 in Loregian et al., J. Virol. 2003, 77:8336-8344) and N-terminally labeled with Oregon Green was added to 2.5 μM GST-UL44ΔC290 in 50 mM Tris-HCl (pH 7.5), 2 mM DTT, 0.5 mM EDTA, 150 mM NaCl, 4% Glycerol and 100 μg/ml bovine serum albumin and kept on ice until the mix was distributed into black 384-well plates (Nunc) in a total volume of 40 μl per well. […] After 5-min incubation at room temperature, the FP values were determined by using an Analyst plate reader (LJL Biosystems) at the ICCB. […]

[7] = IC50 for inhibition of FP (UL44-UL54 peptide interaction)
[8] = read-out: IC50 for inhibition of FP (UL44-UL54 peptide interaction)

T2 sequence (P16790 whole entry): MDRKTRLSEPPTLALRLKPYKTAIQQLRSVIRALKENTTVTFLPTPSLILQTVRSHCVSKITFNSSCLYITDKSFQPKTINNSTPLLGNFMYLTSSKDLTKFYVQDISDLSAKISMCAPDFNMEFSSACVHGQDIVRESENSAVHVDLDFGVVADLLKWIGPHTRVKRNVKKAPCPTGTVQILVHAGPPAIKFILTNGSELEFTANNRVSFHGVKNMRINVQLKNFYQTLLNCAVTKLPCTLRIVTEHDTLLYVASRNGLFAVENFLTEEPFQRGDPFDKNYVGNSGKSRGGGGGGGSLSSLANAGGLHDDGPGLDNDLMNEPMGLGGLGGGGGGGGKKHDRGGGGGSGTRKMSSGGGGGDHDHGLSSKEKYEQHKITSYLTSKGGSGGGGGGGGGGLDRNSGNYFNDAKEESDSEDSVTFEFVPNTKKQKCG
T1 sequence (P16790 1-290, stated change not applied): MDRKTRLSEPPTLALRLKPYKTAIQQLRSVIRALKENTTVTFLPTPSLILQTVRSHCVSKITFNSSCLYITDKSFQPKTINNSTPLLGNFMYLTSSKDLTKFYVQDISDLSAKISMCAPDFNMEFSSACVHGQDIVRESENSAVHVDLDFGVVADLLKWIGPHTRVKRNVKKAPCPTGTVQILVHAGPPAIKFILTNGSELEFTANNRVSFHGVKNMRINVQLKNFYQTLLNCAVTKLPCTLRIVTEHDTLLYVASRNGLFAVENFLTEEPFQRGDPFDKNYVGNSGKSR
T3 sequence (P16790 1-290, stated change not applied): as above

Compound: CCOc1cc(C2C(C#N)=C(N)Oc3n[nH]c(-c4ccccc4)c32)cc([N+](=O)[O-])c1O (stereo not shown) [AL1]
- inhibition of long-chain DNA synthesis by UL54 and UL44 [1]: little or no inhibition
- effect on virus yield / HCMV replication [2]: little or no effect

Compound: CCOc1cc(C2C(C#N)=C(N)Oc3n[nH]c(-c4ccc(Cl)cc4)c32)cc([N+](=O)[O-])c1O (stereo not shown) [AL3]
- inhibition of long-chain DNA synthesis by UL54 and UL44 [1]: little or no inhibition
- inhibition of the UL54-UL44 physical interaction [3]: did not significantly inhibit
- effect on virus yield / HCMV replication [2]: little or no effect

Compound: CCOc1cc(C2C(C#N)=C(N)Oc3n[nH]c(-c4cc(OC)c(OC)c(OC)c4)c32)cc([N+](=O)[O-])c1O (stereo not shown) [AL4]
- effect on virus yield / HCMV replication ([2]; HFF cells): little or no effect

Compound: Cn1c(=O)cc2c3c(c(N4CCCCC4)ccc31)C(=O)c1ccccc1-2 [AL5]
- inhibition of long-chain DNA synthesis by UL54 and UL44 at one concentration [1]: severely decreased formation of long DNA products
- inhibition of long-chain DNA synthesis by UL54 and UL44 [1]: relatively low IC50s
- inhibition of the UL54-UL44 physical interaction [3]: potent
- IC50s in plaque reduction assay [4]: relatively low IC50s
- effect on virus yield / HCMV replication [2]: relatively low IC50s
- cytotoxic concentration relative to antiviral concentration [5]: 7-500 fold
- cytotoxicity [5]: relatively high CC50's

Compound: COc1ccccc1C=C1N=C(c2ccc(OC)c(OC)c2)N(c2cccc(F)c2)C1=O [AL6]
- cytotoxicity [5]: significant cytotoxicity

Compound: Cc1ccc(-c2nc3nc(-c4ccc(Br)cc4)cn3nc2-c2ccc(C)cc2)cc1 [AL8]
- IC50 [6, 7]: < 50 µM and 5 to 30 µM
- inhibition of long-chain DNA synthesis by UL54 and UL44 [1]: inactive

Compound: CCN1C=CC(=CC=Cc2ccc3ccccc3[n+]2CC)c2ccccc21 [AL10]
- IC50 [6, 7]: < 50 µM and 5 to 30 µM
- cytotoxicity [5]: significant cytotoxicity

Compound: CCn1c2ccccc2c2cc3cc4ccccc4cc3cc21 [AL11]
- cytotoxicity [5]: significant cytotoxicity

Compound: O=c1c2cccc3cccc(c32)c2nc3ccccc3n12 [AL12]
- inhibition of long-chain DNA synthesis by UL54 and UL44 at one concentration [1]: severely decreased formation of long DNA products
- inhibition of long-chain DNA synthesis by UL54 and UL44 [1]: relatively low IC50s
- inhibition of the UL54-UL44 physical interaction [3]: potent
- IC50s in plaque reduction assay [4]: relatively low IC50s
- effect on virus yield / HCMV replication ([2]; HFF cells): relatively low IC50s
- cytotoxic concentration relative to antiviral concentration [5]: 7-500 fold
- cytotoxicity [5]: relatively high CC50's

Compound: CN(C)c1ccc2nc3c(=O)[nH]c(=O)[nH]c3nc2c1 [AL13]
- IC50 [6, 8]: 50 µM
- cytotoxicity [5]: significant cytotoxicity

Compound: CNC(=S)NN=Cc1cc(Br)ccc1O [AL14]
- cytotoxicity [5]: significant cytotoxicity

Compound: O=C1CC(=O)c2c1cccc2[N+](=O)[O-] [AL15]
- IC50 [6, 8]: 60 µM

Compound: O=C1c2cccc3c([N+](=O)[O-])ccc(c23)C(=O)N1Cc1cccnc1 [AL19]
- cytotoxicity [5]: significant cytotoxicity
